Laboratory results as given in patent US20250351829A1, “HERBICIDAL COMBINATIONS AND A METHOD FOR CONTROLLING UNDESIRED VEGETATION” (UPL Mauritius Limited, priority 2022, published 2025).

Tested on: Bidens pilosa
Assay: Post-emergence herbicidal activity, weed control efficacy trials
Assay type: in vivo
Details: 7 DAA
Description: Methodology: Trials were conducted to evaluate the efficacy of the combinations comprising L-glufosinate ammonium and additional herbicides on Bidens pilosa weed.
The soil used was sandy clay loam-sand: 68.0%; silt: 8.0%; clay: 24.0%.
All treatments were in 3 replications per treatment with a spray volume of about 150 L/ha.
Efficacy Evaluation: The expected efficacy of the combination comprising L-glufosinate ammonium and additional herbicides was calculated using the well-established Colby method.
In the Colby method, the expected (or predicted) response of a combination of herbicides is calculated by taking the product of the observed response for each individual component of the combination when applied alone, divided by 100, and subtracting this value from the sum of the observed response for each component when applied alone. An unexpected enhancement in efficacy of the combination is then determined by comparing the observed response of the combination to the expected (or predicted) response as calculated from the observed response of each individual component alone. If the observed response of the combination is greater than the expected (or predicted) response, or stated conversely, if the difference between the observed and expected response is greater than zero, then the combination is said to be synergistic or unexpectedly effective (Colby, S. R., Weeds, 1967(15), p. 20-22). The Colby method requires only a single dose of each herbicide applied alone and the mixture of both doses. The formula used to calculate the expected efficacy (EE) which was compared with the observed efficacy (OE) to determine the efficacy of the present disclosure is explained hereinbelow: […]

Compound: Cc1ccc2c(c1)[C@H](Nc1nc(N)nc(C(C)F)n1)[C@@H](C)C2 (stereo partly drawn) [Indaziflam]
- Observed efficacy (%) of Indaziflam (50 g a.i./ha): 90%

Compound: CCc1cccc(C)c1N(COC(C)C)C(=O)CCl [Propisochlor]
- Observed efficacy (%) of Propisochlor (540 g a.i./ha): 5%

Compound: CP(=O)(O)CC[C@H](N)C(=O)O.N [L-glufosinate ammonium]
- Observed efficacy (%) of L-glufosinate ammonium (150 g a.i./ha) (Example 1): 95%
- Observed efficacy (%) of L-glufosinate ammonium (150 g a.i./ha) (Example 2): 95%
- Observed efficacy (%) of L-glufosinate ammonium (150 g a.i./ha) (Example 3): 95%

Compound: Cn1nc(C(F)(F)F)c(CS(=O)(=O)C2=NOC(C)(C)C2)c1OC(F)F [pyroxasulfone, Pyroxasulfone]
- Observed efficacy (%) of pyroxasulfone (75 g a.i./ha): 5%
